Patent US10076519B2 (CYTOKINETICS, INC., priority 2010, dated 2018)

Test system: rabbit skeletal myofibrils (fast skeletal myofibrils)
Assay: Activation of fast skeletal myofibrils (PUMA assay, PK/LDH-coupled ATPase at pCa25)
Assay type: biochemical
Summary of the method: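 ATPase activity of Triton-washed rabbit skeletal myofibrils, roughly 90% fast fibres, tracked by NADH loss at 340 nm through a PK/LDH-coupled ADP-regenerating system. Calcium set to 25% of maximal activity (pCa25), in PIPES 12 mM pH 6.8 with 2 mM MgCl2 and 1 mM DTT; AC1.4 reported.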

[1] = median AC1.4 class, procedure of Example 39
[2] = median AC1.4 reported as class, procedure of Example 39
[3] = AC1.4 determined according to the procedure of Example 39, reported as class symbols

Mean AC1.4 [1]	Mean AC1.4 [3]	also measured	SMILES
A (A=<1 uM)			O=c1[nH]nc(-c2ccc(-c3ccc(NCC4(c5ncccc5F)CCC4)nn3)s2)[nH]1 [3-{5-[6-({[(3-fluoro-2-pyridyl)cyclobutyl]methyl}ami-no)pyridazin-3-yl]-2-thienyl}-1,2,4-triazolin-5-one]
		Mean AC1.4 [2]: D (D=>20 uM)	NC(=O)c1ccc(O)c(-c2ccc(N3CC4(c5ncccc5F)CC3C4)nn2)c1 [3-{6-[4-(3-fluoro(2-pyridyl))-2-azabicyclo[2.1.1]hex-2-yl]pyridazin-3-yl}-4-hydroxybenzamide]
D (D=>20 uM)			NC(=O)c1cccc(-c2ccc(NC3(c4nccs4)CCC3)nn2)c1 [3-{6-[(1,3-thiazol-2-ylcyclobutyl)amino]pyridazin-3-yl}benzamide]
D (D=>20 uM)			CC(C)(Nc1ccc(-c2cccc(C(N)=O)c2)nn1)c1ccccn1 [3-{6-[(1-methyl-1-(2-pyridyl)ethyl)amino]pyridazin-3-yl}benzamide]
B (B=1-10 uM)			CC(C)(Nc1ccc(-c2cccc(C(N)=O)c2)nn1)c1ccccc1 [3-{6-[(1-methyl-1-phenylethyl)amino]pyridazin-3-yl}benzamide]
B (B=1-10 uM)			CC(C)(Nc1ccc(-c2cccc(C#N)c2)nn1)c1ccccc1 [3-{6-[(1-methyl-1-phenylethyl)amino]pyridazin-3-yl}benzenecarbonitrile]
D (D=>20 uM)			NC(=O)c1cccc(-c2ccc(NCC(F)(F)c3ccccn3)nn2)c1 [3-{6-[(2,2-difluoro-2-(2-pyridyl)ethyl)amino]pyridazin-3-yl}benzamide]
	D (D=>20 uM)		NC(=O)c1cccc(-c2ccc(NCCc3ccccn3)nn2)c1 [3-{6-[(2-(2-pyridyl)ethyl)amino]pyridazin-3-yl}benzamide]
	D (D=>20 uM)		NC(=O)c1cccc(-c2ccc(NCCc3cccnc3)nn2)c1 [3-{6-[(2-(3-pyridyl)ethyl)amino]pyridazin-3-yl}benzamide]
	D (D=>20 uM)		NC(=O)c1cccc(-c2ccc(NCCc3ccncc3)nn2)c1 [3-{6-[(2-(4-pyridyl)ethyl)amino]pyridazin-3-yl}benzamide]
	D (D=>20 uM)		CC(C)(CNc1ccc(-c2cccc(C(N)=O)c2)nn1)c1ncccn1 [3-{6-[(2-methyl-2-pyrimidin-2-ylpropyl)amino]pyridazin-3-yl}benzamide]
	D (D=>20 uM)		NC(=O)c1cccc(-c2ccc(NCCc3ccccc3)nn2)c1 [3-{6-[(2-phenylethyl)amino]pyridazin-3-yl}benzamide]
	B (B=1-10 uM)		CC(CNc1ccc(-c2cccc(C(N)=O)c2)nn1)c1ccccc1 (centres unmarked) [3-{6-[(2-phenylpropyl)amino]pyridazin-3-yl}benzamide]
	D (D=>20 uM)		CC(CNc1ccc(-c2cccc(C(N)=O)c2)nn1)N1CCCCC1 (centres unmarked) [3-{6-[(2-piperidylpropyl)amino]pyridazin-3-yl}benzamide]
	D (D=>20 uM)		NC(=O)c1cccc(-c2ccc(NCCc3cnccn3)nn2)c1 [3-{6-[(2-pyrazin-2-ylethyl)amino]pyridazin-3-yl}benzamide]
D (D=>20 uM)			NC(=O)c1cccc(-c2ccc(NC3(c4ccccn4)CCC3)nn2)c1 [3-{6-[(2-pyridylcyclobutyl)amino]pyridazin-3-yl}benzamide]

Mean AC1.4 [1]	Mean AC1.4 [3]	also measured	SMILES
	D (D=>20 uM)		CC(C)(C)CCNc1ccc(-c2cccc(C(N)=O)c2)nn1 [3-{6-[(3,3-dimethylbutyl)amino]pyridazin-3-yl}benzamide]
	B (B=1-10 uM)		NC(=O)c1cccc(-c2ccc(NCC3CCc4ccccc43)nn2)c1 (centres unmarked) [3-{6-[(indanylmethyl)amino]pyridazin-3-yl}benzamide]
C (C=10-20 uM)			CC(C)(C)Nc1ccc(-c2cccc(C(N)=O)c2)nn1 [3-{6-[(tert-butyl)amino]pyridazin-3-yl}benzamide]
	B (B=1-10 uM)		CC(C)(CNc1ccc(C2=CCN(S(C)(=O)=O)CC2)nn1)c1ccc(F)cc1 [4-(6-{[2-(4-fluorophenyl)-2-methylpropyl]amino}pyridazin-3-yl)-1-(methylsulfonyl)-1,2,5,6-tetrahydropyridine]
	B (B=1-10 uM)		CC(C)(CNc1ccc(-c2ccc(C(N)=O)cc2)nn1)c1ccc(F)cc1 [4-(6-{[2-(4-fluorophenyl)-2-methylpropyl]amino}pyridazin-3-yl)benzamide]
	B (B=1-10 uM)		CC(C)(CNc1ccc(-c2ccc(C#N)cc2)nn1)c1ccc(F)cc1 [4-(6-{[2-(4-fluorophenyl)-2-methylpropyl]amino}pyridazin-3-yl)benzenecarbonitrile]
	D (D=>20 uM)		CC(C)(CNc1ccc(-c2ccc(C(=O)c3ccccc3)cc2)nn1)c1ccc(F)cc1 [4-(6-{[2-(4-fluorophenyl)-2-methylpropyl]amino}pyridazin-3-yl)phenyl phenyl ketone]
B (B=1-10 uM)			O=C(c1cnc(-c2ccc(NCC3(c4ncccc4F)CCC3)nn2)s1)N1CCS(=O)(=O)CC1 [4-({2-[6-({[(3-fluoro-2-pyridyl)cyclobutyl]methyl}ami-no)pyridazin-3-yl]-1,3-thiazol-5-yl}carbonyl)-1,4-thiazaperhydroine-1,1-dione]
C (C=10-20 uM)			O=C1CN(C(=O)c2cnc(-c3ccc(NCC4(c5ncccc5F)CCC4)nn3)s2)CCN1 [4-({2-[6-({[(3-fluoro-2-pyridyl)cyclobutyl]methyl}ami-no)pyridazin-3-yl]-1,3-thiazol-5-yl}carbonyl)piperazin-2-one]
B (B=1-10 uM)			NC(=O)C1CN(C(=O)c2cnc(-c3ccc(NCC4(c5ncccc5F)CCC4)nn3)s2)CCN1 (centres unmarked) [4-({2-[6-({[(3-fluoro-2-pyridyl)cyclobutyl]methyl}ami-no)pyridazin-3-yl]-1,3-thiazol-5-yl}carbonyl)piperazine-2-carboxamide]
		Mean AC1.4 [2]: D (D=>20 uM)	O=S1(=O)CCN(Cc2cnc(-c3ccc(NCC4(c5ncccc5F)CCC4)nn3)s2)CC1 [4-({2-[6-({[(3-fluoro-2-pyridyl)cyclobutyl]methyl}ami-no)pyridazin-3-yl]-1,3-thiazol-5-yl}methyl)-1,4-thiazaperhydroine-1,1-dione]
		Mean AC1.4 [2]: B (B=1-10 uM)	O=C1NCc2c1cccc2-c1ccc(NC[C@]2(c3ncccc3F)C[C@H](F)C2)nn1 [4-[6-({[3-fluoro-1-(3-fluoro(2-pyridyl))cyclobutyl]methyl}ami-no)pyridazin-3-yl]isoindolin-1-one]
B (B=1-10 uM)			NC(=O)c1nc(-c2ccc(NCC3(c4ncccc4F)CCC3)nn2)cs1 [4-[6-({[(3-fluoro-2-pyridyl)cyclobutyl]methyl}ami-no)pyridazin-3-yl]-1,3-thiazole-2-carboxamide]
D (D=>20 uM)			NC(=O)c1nccc(-c2ccc(NCC3(c4ncccc4F)CCC3)nn2)n1 [4-[6-({[(3-fluoro-2-pyridyl)cyclobutyl]methyl}ami-no)pyridazin-3-yl]pyrimidine-2-carboxamide]
	D (D=>20 uM)		CC(C)(CNc1ccc(C(=O)N2CCNC(=O)C2)nn1)c1ccc(F)cc1 [4-[(6-{[2-(4-fluorophenyl)-2-methylpropyl]amino}pyridazin-3-yl)carbonyl]piperazin-2-one]
	D (D=>20 uM)		CC(C)(CNc1ccc(C(=O)N2CCNC(C(N)=O)C2)nn1)c1ccc(F)cc1 (centres unmarked) [4-[(6-{[2-(4-fluorophenyl)-2-methylpropyl]amino}pyridazin-3-yl)carbonyl]piperazine-2-carboxamide]
